A word on the pIC50: it is −log10 of the IC50, conventionally taken in molar units.

Molecules are shown by their SMILES. pIC50: −log10 of the molar value.

The target of the test is T1, H+/K+-ATPase (Sus scrofa, UniProt P19156).
T1 construct: reaction buffer solution (60 mmol/l Tris-HCl buffer solution, pH 7.4) containing hog gastric vesicle; from tissue; host or cells: hog stomach (gastric vesicles, by centrifugation after Rabon et al. 1988)
T1 sequence (P19156 2-1034 limits assumed): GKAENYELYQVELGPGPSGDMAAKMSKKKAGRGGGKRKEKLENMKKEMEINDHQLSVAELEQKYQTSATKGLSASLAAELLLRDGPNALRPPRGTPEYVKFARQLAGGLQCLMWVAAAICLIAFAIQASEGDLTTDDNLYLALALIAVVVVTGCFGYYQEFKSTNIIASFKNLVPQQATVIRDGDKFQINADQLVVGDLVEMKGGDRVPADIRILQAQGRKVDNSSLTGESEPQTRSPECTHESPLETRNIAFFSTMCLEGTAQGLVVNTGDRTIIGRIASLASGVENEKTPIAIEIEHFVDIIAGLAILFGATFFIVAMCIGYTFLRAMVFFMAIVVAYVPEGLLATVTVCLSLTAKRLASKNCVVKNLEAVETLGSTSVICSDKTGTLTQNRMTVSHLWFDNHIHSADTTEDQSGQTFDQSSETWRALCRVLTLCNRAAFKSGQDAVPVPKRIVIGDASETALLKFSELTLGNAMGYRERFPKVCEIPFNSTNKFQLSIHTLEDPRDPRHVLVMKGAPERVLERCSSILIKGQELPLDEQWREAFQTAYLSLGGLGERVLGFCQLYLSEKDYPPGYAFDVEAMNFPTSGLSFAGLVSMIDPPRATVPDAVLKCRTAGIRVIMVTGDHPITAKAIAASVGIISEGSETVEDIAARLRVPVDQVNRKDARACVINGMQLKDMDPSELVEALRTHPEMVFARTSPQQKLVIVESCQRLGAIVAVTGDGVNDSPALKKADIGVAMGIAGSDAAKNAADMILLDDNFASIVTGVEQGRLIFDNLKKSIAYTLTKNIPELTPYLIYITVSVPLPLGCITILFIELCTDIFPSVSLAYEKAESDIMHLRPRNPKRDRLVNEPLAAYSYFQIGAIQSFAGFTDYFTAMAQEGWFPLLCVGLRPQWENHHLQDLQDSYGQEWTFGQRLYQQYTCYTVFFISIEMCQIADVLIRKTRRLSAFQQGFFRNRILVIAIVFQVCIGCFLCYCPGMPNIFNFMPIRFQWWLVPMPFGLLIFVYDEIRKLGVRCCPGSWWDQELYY
T1 sequence (P18434 whole entry partner): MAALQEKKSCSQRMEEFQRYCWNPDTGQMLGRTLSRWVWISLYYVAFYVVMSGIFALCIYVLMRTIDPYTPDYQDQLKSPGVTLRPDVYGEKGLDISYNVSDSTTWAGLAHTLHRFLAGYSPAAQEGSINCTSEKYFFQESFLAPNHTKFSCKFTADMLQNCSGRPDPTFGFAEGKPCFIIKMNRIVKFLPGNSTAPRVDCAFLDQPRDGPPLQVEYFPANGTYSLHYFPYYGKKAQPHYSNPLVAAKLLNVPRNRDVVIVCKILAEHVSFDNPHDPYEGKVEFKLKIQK
The test can be described thus: Inhibition of proton pump (H+/K+-ATPase) activity in hog gastric vesicles. In kind it is biochemical. The conditions noted are these: K+ specific H+/K+-ATPase activity, pH 7.4, 37° C. for 40 minutes, malachite green. On the procedure: 1) Preparation of Gastric Vesicles
Gastric vesicles were prepared from hog stomach by centrifugation (Edd C. Rabon et al., Preparation of Gastric H^+,K^+-ATPase, Methods in enzymology, vol. 157 Academic Press Inc., (1988), pp. 649-654). The protein contents of the prepared gastric vesicles were quantified with a Bicinchoninic Acid (BCA) kit.
2) Measurement of Effect of Inhibiting Proton Pump (H^+/K^+-ATPase) Activity
The effect of inhibiting proton pump activity by the compound of the present invention was measured in a 96-well plate. In this experiment, K^+ specific H^+/K^+-ATPase activity was calculated based on the difference between H^+/K^+-ATPase activity in the presence of K^+ ions and H^+/K^+-ATPase activity in the absence of K^+ ions. In the 96-well plate, to negative and positive control groups, 0.5% dimethylsulfoxide (DMSO) in buffer was added, and to the test groups, the compound of the present invention was added. All the analyses were conducted at room temperature with the reaction volume of 100 μl. To a reaction buffer solution (60 mmol/l Tris-HCl buffer solution, pH 7.4) containing hog gastric vesicle, DMSO and each concentration of compound were added, and then, 10 μl of a 10 mmol/l adenosine triphosphate tris buffer solution (60 mmol/l Tris-HCl buffer solution, pH 7.4) was added to initiate an enzyme reaction. The enzyme reaction was conducted at 37° C. for 40 minutes, 50 μl of a malachite green solution (0.12% malachite green solution, 5.8% ammonium molybdate and 11% tween 20 were mixed at a ratio of 100:67:2 in 6.2 N sulfuric acid) was added to stop the reaction, and 50 μl of 15.1% sodium citrate was added. During the reaction, the amount of monophosphate (Pi) was measured at 570 nm using micro plate reader (FLUOstar Omega, BMG Company). Inhibition rate (%) was measured from the activity values of the control groups and the activity values of various concentrations of the test compound, and IC50 of the test compound was calculated from each % inhibition value of the compound using Logistic 4-parameter function of Sigmaplot 8.0 program.
`CNC1CCc2c1cn(S(=O)(=O)c1cccc(Cl)c1C)c2-c1ccccc1F` (stereo not shown) [Example 63, 2-((3-chloro-2-methylphenyl)sulfonyl)-1-(2-fluorophenyl)-N-methyl-2,4,5,6-tetrahydrocyclopenta[c]pyrrol-4-amine]: the pIC50 is 6.21.

As for `CNC1CCc2c1cn(S(=O)(=O)c1cccc(Cl)c1Cl)c2-c1ccccc1F` (stereo not shown) [Example 64, 2-((2,3-dichlorophenyl)sulfonyl)-1-(2-fluorophenyl)-N-methyl-2,4,5,6-tetrahydrocyclopenta[c]pyrrol-4-amine], the pIC50 was 6.08.

For `CNC1CCc2c1cn(S(=O)(=O)c1ccc(F)cc1F)c2-c1ccccc1F` (stereo not shown) [Example 65, 2-((2,4-difluorophenyl)sulfonyl)-1-(2-fluorophenyl)-N-methyl-2,4,5,6-tetrahydrocyclopenta[c]pyrrol-4-amine], the negative-log IC50 (pIC50) is 6.03.

Take `CNC1CCc2c1cn(S(=O)(=O)c1ccc(F)cc1Cl)c2-c1ccccc1F` (stereo not shown) [Example 66, 2-((2-chloro-4-fluorophenyl)sulfonyl)-1-(2-fluorophenyl)-N-methyl-2,4,5,6-tetrahydrocyclopenta[c]pyrrol-4-amine]: the pIC50 was 6.30.

Turning to `CNC1CCc2c1cn(S(=O)(=O)c1ccc(C#N)cc1Cl)c2-c1ccccc1F` (stereo not shown) [Example 67, 3-chloro-4-((1-(2-fluorophenyl)-4-(methylamino)-5,6-dihydrocyclopenta[c]pyrrol-2(4H)-yl)sulfonyl)benzonitrile], the pIC50 was 5.90.

The compound `CNC1CCc2c1cn(S(=O)(=O)c1ccc(OC(F)(F)F)cc1Cl)c2-c1ccccc1F` (stereo not shown) [Example 68, 2-((2-chloro-4-(trifluoromethoxy)phenyl)sulfonyl)-1-(2-fluorophenyl)-N-methyl-2,4,5,6-tetrahydrocyclopenta[c]pyrrol-4-amine] had a pIC50 of 6.08.

Turning to `CNC1CCc2c1cn(S(=O)(=O)c1ccc(C(F)(F)F)cc1Cl)c2-c1ccccc1F` (stereo not shown) [Example 69, 2-((2-chloro-4-(trifluoromethyl)phenyl)sulfonyl)-1-(2-fluorophenyl)-N-methyl-2,4,5,6-tetrahydrocyclopenta[c]pyrrol-4-amine], the pIC50 was 5.79.

In the case of `CNC1CCc2c1cn(S(=O)(=O)c1cc(Cl)ccc1Cl)c2-c1ccccc1F` (stereo not shown) [Example 70, 2-((2,5-dichlorophenyl)sulfonyl)-1-(2-fluorophenyl)-N-methyl-2,4,5,6-tetrahydrocyclopenta[c]pyrrol-4-amine], the pIC50 was 6.37.

Compound `CNC1CCc2c1cn(S(=O)(=O)c1cc(Cl)ccc1Cl)c2-c1ccc(F)cc1F` (stereo not shown) [Example 71, 2-((2,5-dichlorophenyl)sulfonyl)-1-(2,4-difluorophenyl)-N-methyl-2,4,5,6-tetrahydrocyclopenta[c]pyrrol-4-amine] had a pIC50 of 6.17.

`CNC1CCc2c1cn(S(=O)(=O)c1cc(Cl)ccc1Cl)c2-c1ccc(C)cc1F` (stereo not shown) [Example 72, 2-((2,5-dichlorophenyl)sulfonyl)-1-(2-fluoro-4-methylphenyl)-N-methyl-2,4,5,6-tetrahydrocyclopenta[c]pyrrol-4-amine] showed a negative logarithm of the IC50 (pIC50) of 6.32.

`CNC1CCc2c1cn(S(=O)(=O)c1cc(Cl)ccc1Cl)c2-c1cc(Cl)ccc1Cl` (stereo not shown) [Example 73, 1-(2,5-dichlorophenyl)-2-((2,5-dichlorophenyl)sulfonyl)-N-methyl-2,4,5,6-tetrahydrocyclopenta[c]pyrrol-4-amine] showed a negative-log IC50 (pIC50) of 6.17.

As to `CNC1CCc2c1cn(S(=O)(=O)c1cc(C(F)(F)F)ccc1Cl)c2-c1ccccc1F` (stereo not shown) [Example 74, 2-((2-chloro-5-(trifluoromethyl)phenyl)sulfonyl)-1-(2-fluorophenyl)-N-methyl-2,4,5,6-tetrahydrocyclopenta[c]pyrrol-4-amine], the negative-log IC50 (pIC50) was 6.28.

In the case of `CNC1CCc2c1cn(S(=O)(=O)c1c(Cl)cccc1Cl)c2-c1ccccc1F` (stereo not shown) [Example 75, 2-((2,6-dichlorophenyl)sulfonyl)-1-(2-fluorophenyl)-N-methyl-2,4,5,6-tetrahydrocyclopenta[c]pyrrol-4-amine], the pIC50 was 5.67.

(Values after patent US10039747B2, “Tetrahydrocyclopentapyrrole derivatives and a method for preparing the same” (Daewoong Pharmaceutical Co., Ltd., priority 2013, dated 2018).)
